We go through ten compounds from patent publication US20060276339A1, “Methods and compositions for increasing the efficacy of biologically-active ingredients” (priority 2002, published 2006).

Assay [1] has as its system S. cerevisiae yeast cells (YMR4, INVSC). The experiment in a line: Yeast growth in suspension with ATP and drug (turbidity). It is filed as cell-based, Saccharomyces cerevisiae. Particulars: 100 mM ATP, 48 hours. As to the method: Cell lines: Cell lines were the same as those described above in Example 4 and 5. YMR4 MDRI is the phosphatase mutant yeast strain overexpressing AtPGP-1; YMR4 pVT011 contains vector alone; INVSC MDRI is the wild-type yeast strain overexpressing AtPGP-1; and INVSC pVT101 contains vector alone.
Selection in drug: To create drug resistant yeast strains, all four cell lines were grown up in the presence of 500 ng/ml of cycloheximide, and transferred to other cycloheximide containing plates after a period of four to six days. This transfer of cell lines and subculturing continued such that the yeast cells grew in the presence of cycloheximide for a period of at least a month. Cells cultured in media alone: To create cell lines that had not been preselected for their ability to grow in drug, yeast strains were grown on plates containing YNB (Bio101, Vista, Calif.) without uracil (-URA) to maintain the presence of the vector (which supplies URA) without any drugs added.
Growth of cells in suspension for ATP and drug selection experiments: Cells were transferred into 5 ml YNB-URA liquid media for turbidity measurements. All cell lines (both non-drug selected and drug-selected) were grown in media with the addition of either nothing, 500 ng/ml cycloheximide, 100 mM ATP, or 500 ng/ml cycloheximide and 100 mM ATP. Turbidity readings were taken after 48 hours.

The next assay deals with SW-13. Description: IC50 test (NTT), 96 well plate, vinblastine sensitive parent line. Particulars: Homo sapiens, SW13, 96 h, read-out: IC50 (sensitive at). Type of assay: cell-based. As to the method: (§1) In order to determine the effect of ectophosphatase inhibitors on tumor cells resistant to a chemotherapeutic agent, 2 […] tumor cell lines were tested, a vinblastine resistant line (SW-13Vb003) and its vinblastine sensitive parent line, SW-13. A standard 4 day incubation at 37° C. and 5% CO2 was used. IC50 tests (NTT) were done using standard methodology in 96 well plate format with inhibitor concentrations ranging from 0-90 μg/ml (DMEM media). […] For NGXT194, SW-13 was sensitive at 20 μg/ml, whereas the vinblastine resistant line SW-13Vb003 was sensitive at 10 μg/ml. For NGXT196, SW-13 was sensitive at 30 μg/ml, whereas the vinblastine resistant line SW-13Vb003 was sensitive at 10 μg/ml. For NGXT1915, SW-13 was sensitive at 50 μg/ml, whereas the vinblastine resistant line SW-13Vb003 was sensitive at 20 μg/ml.

A further assay relates to SW-13Vb003. Description: IC50 test (NTT), 96 well plate, vinblastine resistant line. It is filed as cell-based. Particulars: 96 h, read-out: IC50 (sensitive at). On the procedure:
as §1

Assay [2] has as its system ectoapyrase activity associated with the plasma membrane of cholinergic nerve terminal of Torpedo mannorata electric organs. The note with it: Torpedo electric organ nerve terminal plasma membrane; cited from earlier work.
For assay [3], the system named is YMR4 yeast. Description: Yeast growth in suspension, adenosine salvage pathway experiments (turbidity). It is filed as cell-based, Saccharomyces cerevisiae. The note with it: added to media with cycloheximide, 72 hours. As to the method:
Selection in drug: To create drug resistant yeast strains, all four cell lines were grown up in the presence of 500 ng/ml of cycloheximide, and transferred to other cycloheximide containing plates after a period of four to six days. This transfer of cell lines and subculturing continued such that the yeast cells grew in the presence of cycloheximide for a period of at least a month.
Growth of cell lines in suspension for salvage pathway experiments: All cell lines were grown in liquid media either containing drug (for the drug selected lines) or not containing drug (for the non-drug selected lines). When the cultures reached a turbidity of 1.00 as measured at a wavelength of 600 in a spectrophotometer (OD600=1.00), 10 μl of each culture was then removed and placed in either media with nothing added, 3 mM potassium phosphate; 3 mM adenosine; 9 mM potassium phosphate and 3 mM adenosine (for controls); potassium phosphate and cycloheximide; adenosine and cycloheximide; adenosine, cycloheximide, and potassium phosphate. Cell cultures were further grown for 72 hours, and their turbidity was determined by OD600 readings on a spectrophotometer.

The test system of assay [4] is YMR4 yeast. Description: Yeast drug selection growth assay, phosphatase deficient mutant. Type of assay: cell-based, Saccharomyces cerevisiae. The text has this:
(§2) Expression of AtPGP-1 in yeast: The AtPGP-1 cDNA (Arabidopsis thaliana MDR gene, accession #X61370) was subcloned into pVT101 downstream of the ADH promoter to create the AtPGP-1/pVT101 construct. AtPGP-1/pVT101 and pVT101 were transformed into Saccharomyces cerevisiae INVSCI (genotype: MATa, his3-Δ1, leu2, trpl-289, ura3-52) and YMR4 (genotype: MATαhis3-11,15, leu2-3, 112ura3Δ5, can Res pho5, 3::ura3A1) by a PEG lithium acetate procedure (Eble, 1992) and selected on uracil dropout medium.
(§3) Yeast Growth: Yeast were grown at 30° C. under conditions of constant selection for uracil auxotrophy. YNB (Bio101, Vista, Calif.) supplemented with CSM (uracil dropout) and 2% glucose was used to grow strains having pVT101 constructs. Cycloheximide (Sigma Chemical, St. Louis, Mo.) was added to liquid media or spread on solid media to achieve a final concentration of 500 ng/ml. Nigencm (Sigma Chemical, St. Louis, Mo.) was added to liquid media or spread on solid media to achieve a final concentration of 25 μg/ml. Yeast strains used in cycloheximide selection assays were always propagated in the presence of the cycloheximide on plates and then streaked onto new plates containing drug or no drug, such that induced resistance existed in each strain at the time of the start of the assay. […] Yeast selection assays in liquid media were quantitated by turbidity as measured by absorbance at OD600.

The next assay concerns INVSCI yeast. The experiment in a line: Yeast drug selection growth assay, wild-type strain. Particulars: cycloheximide 500 ng/ml. Type of assay: cell-based, Saccharomyces cerevisiae.
From the text: as §2, §3

Assay [5] has as its system wild-type Arabidopsis thaliana plants. Description: Arabidopsis germination selection assay, wild-type plants. It is filed as in vivo. Particulars: cycloheximide 500 ng/ml, phosphatase inhibitor 1 mM, 10-20 days. On the procedure:
Plant growth: Arabidopsis thaliana seeds were sown in a solid germination media containing MS salt, 2% sucrose, 0.8% agar, and vitamins (Valvekens et al., 1992). For selection assays, cycloheximide was spread on the media to achieve a final concentration of […]. Plant growth was measured by germination percentage after 6-30 days.
(§4) Plant Growth: Arabidopsis seeds were sown in a solid germination media containing MS salts (Sigma Chemical, St. Louis, Mo.), 2% sucrose, 0.8% agar, and vitamins (Valvekens et al., 1992). For selection assays, one of the following, or a combination of both, was added to media (cooled to less than 50° C. before adding) immediately prior to pouring into plates: cycloheximide at a final concentration of 500 ng/ml; α,β-methyleneadenosine 5′-diphosphate at a final concentration of 1 mM. Plant growth was measured by germination percentage after 10-20 days.
All other materials and methods were discussed above in Example 4.

For assay [6], the system named is AtPGP-1 overexpressing (MDR OE) Arabidopsis thaliana plants. It is filed as in vivo. Particulars: AtPGP-1 overexpressing plants; cycloheximide 500 ng/ml, phosphatase inhibitor 1 mM; 10-20 days.
From the text: Similar methods were employed to express AtPGP-1 in Arabidopsis thaliana plants with the following modifications. […] This plasmid was then transformed into A. tumefaciens as described above, which was used to infect root calli to produce transgenic plants expressing AtPGP-1.
as §4

The structures appear in SMILES notation. Values after ≈ are worked out from the molar mass of the structure shown.

A word on the IC50: it is the concentration that gives 50% inhibition.

For the compound `Nc1ncnc2c1ncn2[C@@H]1O[C@H](COP(=O)(O)OP(=O)(O)OP(=O)(O)O)[C@@H](O)[C@H]1O` [ATP], the “yeast growth in high levels of ATP” value was “able to grow” in assay [1] (cells not previously selected in drug) and “not able to grow” in assay [1] (cells previously grown in drug (resistant), not overexpressing AtPGP-1).
As for `Cc1ccc(O)c(/C=N/NC(=O)Cc2cccc3ccccc23)c1` [NGXT194], the IC50 in the assay with SW-13 came out at 20 µg/mL (≈ 62.8 µM); with SW-13Vb003 it was 10 µg/mL (≈ 31.4 µM).
In the same order, the values of `O=C(Cc1cccc2ccccc12)N/N=C/c1ccc(Br)cc1` [NGXT196] are 30 µg/mL (≈ 81.7 µM) and 10 µg/mL (≈ 27.2 µM).
For `C/C(=N\NC(=O)c1cccc(C)c1)c1ccc2ccccc2c1` [NGXT1915] the same measures were 50 µg/mL (≈ 165 µM) and 20 µg/mL (≈ 66.1 µM).
For `Cc1ccc(C(=O)Nc2ccc(S(=O)(=O)O)c3cc(S(=O)(=O)O)cc(S(=O)(=O)O)c23)cc1NC(=O)c1cccc(NC(=O)Nc2cccc(C(=O)Nc3cc(C(=O)Nc4ccc(S(=O)(=O)O)c5cc(S(=O)(=O)O)cc(S(=O)(=O)O)c45)ccc3C)c2)c1` [Suramin, 8,8′[Carbonylbis[imino-3,1-phenylenecarbonylimino(4-methyl-3,1-phenylene)carbonylimino]]bis-1,3,5-naphthalenetrisulfonic acid], the “inhibition of ectoapyrase activity” value in assay [2] was “potent non-competitive inhibitor”.
In the case of `Nc1ncnc2c1ncn2[C@@H]1O[C@H](CO)[C@@H](O)[C@H]1O` [adenosine], the “effect on resistance of yeast cells to cycloheximide” value in the assay with YMR4 yeast [3] is “did not enhance resistance”.
For the compound `C[C@@H]1C[C@@H]([C@H](O)CC2CC(=O)NC(=O)C2)C(=O)[C@@H](C)C1` [cycloheximide], the “yeast growth in drug” value in the assay on YMR4 yeast [4] (YMR4 mutant, cycloheximide 500 ng/ml) is “did not grow”; in the assay with INVSCI yeast, “did grow”. For the same compound, the germination rate in assay [5] amounted to 2%; in assay [6] it was 50%.
For `CO[C@@H]1C[C@@H](C[C@H]2CC[C@H](C)[C@H]([C@@H](C)C(=O)O)O2)O[C@]2(O[C@](C)([C@H]3CC[C@@](C)([C@@H]4O[C@@H]([C@H]5O[C@@](O)(CO)[C@H](C)C[C@@H]5C)C[C@@H]4C)O3)C[C@H]2C)[C@@H]1C` [nigericin], the “yeast growth in drug” value in the assay on YMR4 yeast [4] (YMR4 containing vector alone, nigericin 25 μg/ml) is “reduced growth”.
On to `Nc1ncnc2c1ncn2[C@@H]1O[C@H](COP(=O)(O)CP(=O)(O)O)[C@@H](O)[C@H]1O` [phosphatase inhibitor, α,β-methyleneadenosine 5′-diphosphate], for which the germination rate in assay [5] amounted to 90%; in [6], 83%.
As to `O=P(O)(O)O` [phosphate, potassium phosphate], the “effect on resistance of yeast cells to cycloheximide” value in the assay on YMR4 yeast [3] was “did not enhance resistance”.
